# Measurements published in patent US5922771A, “Benzocycloalkene compounds, their production and use” (Takeda Chemical Industries, Ltd., priority 1995, dated 1999).
# Target: melatonin receptor
# Test: Action of inhibiting 2-[^125 I]iodomelatonin binding
# Design: species or system chicken (white leghorn)
# Settings: forebrain membranes of 7-day-old chickens; 80 pM 2-[^125 I]iodomelatonin; 90 minutes at 25° C., pH 7.7; read-out: IC50, inhibition of 2-[^125 I]iodomelatonin binding
# Experimental: The forebrains of 7-day-old chickens (white leghorn) were homogenized with ice-cooled assay-buffer (50 mM Tris-HCl, pH 7.7, at 25° C.) and centrifuged at 44,000×g for 10 minutes to give pellet. The pellet was washed once with the same buffer solution, which was further homogenized with the assay-buffer to make a protein concentration of 0.3-0.4 mg/mL. The homogenate was used as a membrane sample. In a test tube, the membrane sample and a ligand (80 pM 2-[^125 I]iodomelatonin,ca. 100,000 dpm) were mixed to make the whole volume 0.5 mL. The mixture was incubated for 90 minutes at 25° C., to which was added 3 mL of ice-cooled assay buffer, immediately followed vacuum filtration on Whatman GF/B which was further washed twice with 3 mL each of ice-cold assay buffer. The radioactivity on the filter was determined by means of gamma-counter. Specific binding was calculated by subtracting the non-specific binding which was determined in the presence of 10 μM melatonin. The 50% inhibiting concentration (IC50) was determined by the log-probit analysis.
smiles,measurement,value
"COc1ccc2c(c1)C(CCNC(=O)C(F)(F)F)=C(c1ccccc1)C2 [Working Example 1, 2,2,2-Trifluoro-N-[2-(5-methoxy-2-phenyl-1H-inden-3-yl)ethyl]acetamide]",IC50,87 pM
